Values quoted from earlier work as cited in patent US20230099183A1, “STEVIOL GLYCOSIDE AND GLYCERIN FORMULATIONS FOR FOOD AND BEVERAGES” (Sweegen, Inc., priority 2021, published 2023).

Columns and labels:
[1] = background statement; concentration in food or beverage
[2] = background statement on natural steviol glycosides

Molecule | concentration above which bitterness is perceptible [1] | degree of sweetness, times sweeter than sucrose [2]
C=C1C[C@@]23CC[C@H]4[C@@](C)(CCC[C@@]4(C)C(=O)O[C@@H]4O[C@H](CO)[C@@H](O)[C@H](O)[C@H]4O)[C@@H]2CC[C@]1(O[C@@H]1O[C@H](CO)[C@@H](O)[C@H](O[C@@H]2O[C@H](CO)[C@@H](O)[C@H](O)[C@H]2O)[C@H]1O[C@@H]1O[C@H](CO)[C@@H](O)[C@H](O)[C@H]1O)C3 [Reb A] | above 200 ppm | –
C=C1C[C@@]23CC[C@H]4[C@@](C)(CCC[C@@]4(C)C(=O)O[C@@H]4O[C@H](CO)[C@@H](O)[C@H](O)[C@H]4O)[C@@H]2CC[C@]1(O[C@@H]1O[C@H](CO)[C@@H](O)[C@H](O)[C@H]1O[C@@H]1O[C@@H](C)[C@H](O)[C@@H](O)[C@H]1O)C3 [Dulcoside A] | – | about 30 times sweeter than sucrose
Rebaudioside C | – | 40-60 times sweeter than sucrose
C=C1C[C@@]23CC[C@H]4[C@@](C)(CCC[C@@]4(C)C(=O)O[C@@H]4O[C@H](CO)[C@@H](O)[C@H](O)[C@H]4O)[C@@H]2CC[C@]1(O[C@@H]1O[C@H](CO)[C@@H](O)[C@H](O)[C@H]1O[C@@H]1O[C@H](CO)[C@@H](O)[C@H](O)[C@H]1O)C3 [stevioside] | – | 100-150 times sweeter than sucrose
